Experimental data as given in patent publication US10285944B2 (ALFASIGMA S.P.A., priority 2005, dated 2019).

Experiments:
[1] = depending on the dose and the treatment duration; cited from earlier work
[2] = tested on: patients affected by Crohn's disease; test: Clinical multi-center randomised trial versus placebo in Crohn's disease; format: in vivo, human; conditions: 27 patients
Excerpt: 55 Crohn's disease patients in acute, mild to moderate grade, phase, having CDAI (Crohn Disease Active Index) value between 200 and 300, have been recruited. The primary end point was represented by the percentage of the patients in clinic remission defined as CDAI lower than 150 points at the end of the study. The patients, randomised in two groups: group A, of 27 patients and group B of 28 patients, have been treated for 12 weeks according to the following therapeutic schemes:
Group B: placebo, administrated 2 times in a day in a such quantity to correspond to the content of the dose of the active principle.

[3] = tested on: Crohn's patients characterized by a protein C reactive value higher than normal; test: Crohn's patients with protein C reactive value higher than normal (subgroup of the trial); format: in vivo, human; conditions: subgroup with protein C value higher than normal values; 16 patients treated with rifaximin
[4] = CDAI lower than 150 after 12 weeks, rifaximin 800 mg 2 times a day (preparation of example 3)

## Cc1ncc([N+](=O)[O-])n1CCO [metronidazole]
[1]
  incidence of side effects: 10-20%

## CO[C@H]1/C=C/O[C@@]2(C)Oc3c(C)c(O)c4c(O)c(c5c(nc6cc(C)ccn65)c4c3C2=O)NC(=O)/C(C)=C\C=C\[C@H](C)[C@H](O)[C@@H](C)[C@@H](O)[C@@H](C)[C@H](OC(C)=O)[C@@H]1C [rifaximin]
[2]; 12 weeks, rifaximin 800 mg 2 times a day
  therapeutic failure, percentage of the patients: (3.4%)
[2]; [4]
  Number of clinical remission: 14
  clinical remission, percentage of the patients: (51.9%)
[3]
  Number of clinical remission: 10
  clinical remission, percentage of the patients: (62.5%)
  therapeutic failure, percentage of the patients: (0%)
